Article PMC12263422, “Cryo-EM structure of the human THIK-1 K2P K^+ channel reveals a lower Y gate regulated by lipids and anesthetics” (Nature Structural & Molecular Biology, 2025)
“And” between values parts separate entries of the source, which are not always exact repeats. Equal entries are not always repeated. Where two headings read alike, the source gives them in different places.

Target: T1, Human K2P13.1 THIK-1 (WT) (Homo sapiens, UniProt Q9HB14)
T1 construct: expressed in transfected cells; host or cells: Xenopus oocytes (mRNA injection)
T1 sequence (Q9HB14 1-408): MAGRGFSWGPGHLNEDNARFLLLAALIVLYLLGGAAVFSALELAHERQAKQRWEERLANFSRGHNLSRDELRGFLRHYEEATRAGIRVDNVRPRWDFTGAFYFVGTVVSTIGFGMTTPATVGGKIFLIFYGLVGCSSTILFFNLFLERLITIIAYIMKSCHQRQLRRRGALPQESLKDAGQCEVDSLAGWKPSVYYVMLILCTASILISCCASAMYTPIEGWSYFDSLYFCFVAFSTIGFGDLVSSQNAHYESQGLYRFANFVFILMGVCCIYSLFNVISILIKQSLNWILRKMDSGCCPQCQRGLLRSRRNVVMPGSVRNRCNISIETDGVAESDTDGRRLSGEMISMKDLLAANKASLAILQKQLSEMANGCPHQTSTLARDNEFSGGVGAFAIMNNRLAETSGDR
Assay: Macroscopic inside-out excised patch recordings from Xenopus oocytes expressing WT THIK-1; compounds applied to the intracellular side
Format: cell-based
Text: Human K2P13.1 THIK-1 (GenBank accession number: NM_022054) and human K2P12.1 THIK-2 (NM_022055.1) were used in this study. For functional expression studies, the respective K^+ channel subtype coding sequences were subcloned into the oocyte expression vector pSGEM or the dual-purpose expression vector pFAW[41] and verified by sequencing. All mutant channels were obtained by site-directed mutagenesis and verified by sequencing. To increase surface expression and macroscopic currents, measurements of THIK-2 channels used a mutated ER retention motif, (R11A R12A R14A R15A R16A; THIK-2*)[20]. Vector DNA was linearized with NheI or MluI, and mRNA was synthesized in vitro using the SP6 or T7 AmpliCap Max High Yield Message Maker Kit (Cellscript, USA) or HiScribe T7 ARCA mRNA Kit (New England Biolabs).
Two-electrode voltage–clamp (TEVC) studies were performed in Xenopus oocytes. All animal use conformed to the Guide for the Care and Use of Laboratory Animals (NIH Publication 85–23), and all experiments using Xenopus toads were approved by the local ethics panels. Oocytes were stored at 17 °C in ND96 recording solution composed of (in mM): 96 NaCl, 2 KCl, 1.8 CaCl2, 1 MgCl2, 5 HEPES (pH 7.5 adjusted with NaOH and HCl), supplemented with Na-pyruvate (275 mg L^–1), theophylline (90 mg L^–1) and gentamicin (50 mg L^–1). Oocytes were injected with 1 ng mRNA for WT or mutant channels, and were incubated for 24–48 h at 17 °C. Two-electrode voltage clamp recordings were then performed as previously described[42],[43]. For macroscopic patch–clamp measurements, oocytes were obtained as described above incubated at 17 °C in a solution containing (mM): 54 NaCl, 30 KCl, 2.4 NaHCO3, 0.82 MgSO4 ×7 H2O, 0.41 CaCl2, 0.33 Ca(NO3)2 ×4 H2O and 7.5 TRIS (pH 7.4 adjusted with NaOH and HCl) for 1–4 days before use. Excised patch recordings in inside-out configuration conditions were performed at room temperature. Patch pipettes were made from thick-walled borosilicate glass GB 200TF-8P (Science Products), had resistances of 0.2–0.5 MΩ (tip diameter, 10–25 µm) and filled with a pipette solution (in mM): 120 KCl, 10 HEPES and 3.6 CaCl2 (pH 7.4 adjusted with KOH and HCl). Intracellular bath solutions and compounds were applied to the cytoplasmic side of excised patches for the various K^+ channels through a gravity flow multi-barrel pipette system. The intracellular solution had the following composition (in mM): 120 KCl, 10 HEPES, 2 EGTA and 1 pyrophosphate (pH adjusted with KOH and HCl). Currents were recorded with an EPC10 amplifier (HEKA Electronics) and sampled at 10 kHz or higher, with filtering set to 3 kHz (–3 dB) or higher, as appropriate for sampling rate. For measurements of GPCR activation, whole-cell currents were recorded for THIK-1 in transiently transfected HEK-293 cells. Cells were stimulated by a ramp protocol between −100 and +60 mV (holding potential, −80 mV). The pipette solution was composed of (in mM): 140 KCl, 2 MgCl2, 1 CaCl2, 2.5 EGTA and 10 HEPES (pH 7.3 adjusted with KOH and HCl). The extracellular bath solution had the following composition (in mM): 135 NaCl, 5 KCl, 2 MgCl2, 2 CaCl2, 10 glucose and 10 HEPES pH (pH 7.3 adjusted with NaOH and HCl). Oxotremorine M (Oxo-M) was added to extracellular bath solution to obtain the final concentration. Single-channel currents were recorded with an Axopatch 200B amplifier through a Digidata 1440A digitizer (Molecular Devices). Data were filtered at 2 kHz and recorded at a 200-kHz sampling rate with the program Clampex (Molecular Devices). Pipette solution and bath solution for cell-attached recordings contained (in mM): 140 KCl, 2 MgCl2, 1 CaCl2 and 10 HEPES (pH 7.4 adjusted with KOH and HCl). For inside-out recordings, the bath solution contained (in mM): 140 KCl, 2 MgCl2, 1 CaCl2 and 10 HEPES (pH 7.2 adjusted with KOH and HCl). All experiments were conducted at room temperature. […]

[1] = WT (unstimulated), individual recordings
[2] = WT, PIP2, individual recordings
[3] = WT, oleoyl-CoA, individual recordings

CCCCC[N+](CCCCC)(CCCCC)CCCCC [TPenA, tetrapentylammonium]
block of initial currents (0.5 mM TPenA, WT): ~ 80%
Normalized currents (THIK-1 WT (unstimulated), 0.01 µM TPenA): 1.00
Normalized currents (THIK-1 WT (unstimulated), 0.1 µM TPenA): 0.97
Normalized currents (THIK-1 WT (unstimulated), 1 µM TPenA): 0.94
Normalized currents (THIK-1 WT (unstimulated), 10 µM TPenA): 0.88
Normalized currents (THIK-1 WT (unstimulated), 15.6 µM TPenA): 0.89
Normalized currents (THIK-1 WT (unstimulated), 62.5 µM TPenA): 0.75
Normalized currents (THIK-1 WT (unstimulated), 100 µM TPenA): 0.71
Normalized currents (THIK-1 WT (unstimulated), 250 µM TPenA): 0.49
Normalized currents (THIK-1 WT (unstimulated), 1000 µM TPenA): 0.21
Normalized currents (THIK-1 WT (unstimulated), 4000 µM TPenA): 0.09
Normalized currents (THIK-1 WT (unstimulated), 5000 µM TPenA): 0.09
Normalized currents (TPenA 0.01 µM, THIK-1 WT (oleoyl-CoA, 5 µM)): 1
Normalized currents (TPenA 0.01 µM, THIK-1 WT (unstimulated)): 1.00
Normalized currents (TPenA 0.1 µM, THIK-1 WT (PIP2)): 1
Normalized currents (TPenA 0.1 µM, THIK-1 WT (oleoyl-CoA, 5 µM)): 0.87
Normalized currents (TPenA 0.1 µM, THIK-1 WT (unstimulated)): 0.97
Normalized currents (TPenA 1 µM, THIK-1 WT (PIP2)): 0.86
Normalized currents (TPenA 1 µM, THIK-1 WT (oleoyl-CoA, 5 µM)): 0.81
Normalized currents (TPenA 1 µM, THIK-1 WT (unstimulated)): 0.94
Normalized currents (TPenA 4 µM, THIK-1 WT (PIP2)): 0.54
Normalized currents (TPenA 4 µM, THIK-1 WT (oleoyl-CoA, 5 µM)): 0.48
Normalized currents (TPenA 10 µM, THIK-1 WT (unstimulated)): 0.88
Normalized currents (TPenA 15.6 µM, THIK-1 WT (PIP2)): 0.26
Normalized currents (TPenA 15.6 µM, THIK-1 WT (oleoyl-CoA, 5 µM)): 0.22
Normalized currents (TPenA 15.6 µM, THIK-1 WT (unstimulated)): 0.89
Normalized currents (TPenA 62.5 µM, THIK-1 WT (PIP2)): 0.1
Normalized currents (TPenA 62.5 µM, THIK-1 WT (oleoyl-CoA, 5 µM)): 0.09
Normalized currents (TPenA 62.5 µM, THIK-1 WT (unstimulated)): 0.75
Normalized currents (TPenA 100 µM, THIK-1 WT (unstimulated)): 0.71
Normalized currents (TPenA 250 µM, THIK-1 WT (PIP2)): 0.03
Normalized currents (TPenA 250 µM, THIK-1 WT (oleoyl-CoA, 5 µM)): 0.04
Normalized currents (TPenA 250 µM, THIK-1 WT (unstimulated)): 0.49
Normalized currents (TPenA 1000 µM, THIK-1 WT (PIP2)): 0.02
Normalized currents (TPenA 1000 µM, THIK-1 WT (oleoyl-CoA, 5 µM)): 0.02
Normalized currents (TPenA 1000 µM, THIK-1 WT (unstimulated)): 0.21
Normalized currents (TPenA 4000 µM, THIK-1 WT (PIP2)): 0.01
Normalized currents (TPenA 4000 µM, THIK-1 WT (oleoyl-CoA, 5 µM)): 0.02
Normalized currents (TPenA 4000 µM, THIK-1 WT (unstimulated)): 0.09
Normalized currents (TPenA 5000 µM, THIK-1 WT (unstimulated)): 0.09
IC50 (TPenA IC50, THIK-1 WT, individual recordings): 228 µM and 219 µM and 204 µM (2×) and 231 µM and 268 µM and 259 µM and 120 µM and 223 µM and 194 µM and 240 µM and 308 µM
IC50 (TPenA IC50, THIK-1 WT, mean): 225 µM
IC50 (TPenA IC50, intracellular application to excised patches, WT unstimulated): 225 ± 13 µM
τ of 1 mM TPenA block [1]: 14.000 s and 10.890 s and 8.250 s and 24.220 s and 9.660 s and 10.730 s and 11.070 s and 13.110 s and 12.070 s and 8.080 s and 8.510 s
τ of 1 mM TPenA release [1]: 76.730 s and 96.620 s and 52.570 s and 76.880 s and 103.780 s and 38.820 s and 101.050 s and 68.790 s and 74.350 s and 174.000 s and 73.800 s
τ of 1 mM TPenA block (WT (unstimulated), mean): 11.87 s
τ of 1 mM TPenA release (WT (unstimulated), mean): 85.22 s
τblock (kinetics of TPenA block) (WT unstimulated): 12 ± 1 s
τrelease (kinetics of TPenA release) (WT unstimulated): 85 ± 11 s
τ of 1 mM TPenA block [2]: 0.324 s and 0.375 s and 0.323 s and 0.215 s and 0.293 s
τ of 1 mM TPenA release [2]: 29.360 s and 29.550 s and 28.630 s and 28.550 s and 38.470 s and 25.420 s
τblock (WT, PIP2 activated): 0.31 ± 0.02 s
τrelease (WT, PIP2 activated): 30 ± 2 s
τ of 1 mM TPenA block (WT, PIP2 activated, mean): 0.31 s
τ of 1 mM TPenA release (WT, PIP2 activated, mean): 30.00 s
τblock (WT, oleoyl-CoA activated): 0.5 ± 0.1 s
τrelease (WT, oleoyl-CoA activated): 11 ± 1 s
τ of 1 mM TPenA block (WT, oleoyl-CoA activated, mean): 0.53 s
τ of 1 mM TPenA release (WT, oleoyl-CoA activated, mean): 10.85 s
τ of 1 mM TPenA block [3]: 0.330 s and 0.560 s and 0.270 s and 0.340 s and 0.440 s and 0.930 s and 0.380 s and 0.720 s and 0.750 s and 0.360 s
τ of 1 mM TPenA release [3]: 7.190 s and 6.440 s and 12.640 s and 12.180 s and 15.140 s and 8.860 s and 13.480 s
inhibition at 15.6 µM (read-out: inhibition with 15.6 µM TPenA, WT channel in PIP2): 74 ± 1%
inhibition at 15.6 µM (read-out: inhibition with 15.6 µM TPenA, WT channel in oleoyl-CoA): 78 ± 1%
inhibition at 15.6 µM (read-out: inhibition with 15.6 µM TPenA, WT channel, unstimulated): 11 ± 1%
